Patent publication US8546424B2, “Acetylene derivatives of 5-phenyl-pyrazolopyridine, preparation thereof, and therapeutic use thereof” (Sanofi, priority 2009, dated 2013)
pEC50: −log10 of the molar value.

Target: T1, mouse Nurr1 receptor (Mus musculus, UniProt Q06219)
T1 construct: endogenously expressing the mouse Nurr1 receptor; host or cells: Neuro-2A (N2A) mouse neuroblastoma cells stably transfected with 8NBRE-luciferase
Assay: in vitro activity on N2A cells (8NBRE-luciferase reporter)
Assay type: cell-based
Conditions: N2A-8NBRE cells, 24 hours incubation
Procedure: The compounds according to the invention have formed the subject of pharmacological assays which make it possible to determine their modulatory effect on NOT. Evaluation of the in vitro Activity on N2A Cells
The activity of the compounds according to the invention was evaluated on a cell line (N2A) endogenously expressing the mouse Nurr1 receptor and stably transfected with the NOT binding response element (NBRE) coupled to the luciferase reporter gene. The assays were carried out according to the procedure described below.
The Neuro-2A cell line comes from a standard commercial source (ATCC). The Neuro-2A clone was obtained, from a spontaneous tumour originating from an A albino mouse strain, by R. J Klebe et al. This Neuro-2A line is subsequently stably transfected with 8NBRE-luciferase. The N2A-8NBRE cells are cultured until confluence in 75 cm^2 culture flasks containing DMEM supplemented with 10% of foetal calf serum, 4.5 g/l of glucose and 0.4 mg/ml of geneticin. After a week of culture, the cells are recovered with 0.25% trypsin for 30 seconds and then resuspended in DMEM without phenol red, containing 4.5 g/l of glucose and 10% of Hyclone delipidized serum, and deposited into transparent-bottom 96-well white plates. […] The plates are subsequently measured in a luminescence counter for microplates after having been sealed with an adhesive film. […]

T1 sequence (Q06219 whole entry): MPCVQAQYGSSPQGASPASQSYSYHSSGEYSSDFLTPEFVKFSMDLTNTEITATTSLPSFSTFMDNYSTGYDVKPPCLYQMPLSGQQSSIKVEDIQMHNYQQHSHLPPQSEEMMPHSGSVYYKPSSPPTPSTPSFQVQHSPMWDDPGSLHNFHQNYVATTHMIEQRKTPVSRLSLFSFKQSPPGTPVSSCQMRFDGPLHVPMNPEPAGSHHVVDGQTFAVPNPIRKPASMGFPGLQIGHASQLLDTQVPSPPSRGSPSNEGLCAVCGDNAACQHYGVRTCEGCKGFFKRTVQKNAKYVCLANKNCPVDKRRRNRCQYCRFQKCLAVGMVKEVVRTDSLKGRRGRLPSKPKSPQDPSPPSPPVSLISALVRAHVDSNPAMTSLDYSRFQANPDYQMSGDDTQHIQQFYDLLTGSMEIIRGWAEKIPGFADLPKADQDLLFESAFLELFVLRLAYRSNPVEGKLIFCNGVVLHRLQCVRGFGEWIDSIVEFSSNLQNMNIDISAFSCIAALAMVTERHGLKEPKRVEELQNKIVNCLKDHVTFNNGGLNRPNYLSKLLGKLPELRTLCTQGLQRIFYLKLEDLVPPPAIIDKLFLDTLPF

Row | pEC50 | Compound
1 | 8.52 | C#CC(O)c1cccc(-c2ccn3nc(-c4ccc(F)cc4)cc3c2)c1 (racemic) [Compound 2, 1-{3-[2-(4-Fluorophenyl)pyrazolo[1,5-a]pyridin-5-yl]phenyl}prop-2-yn-1-ol]

System: not given
Assay: not given
Conditions: not given

Row | melting point [°C] | Compound
2 | 195 to 197 | C#CC(O)c1cccc(-c2ccn3nc(-c4ccc(Cl)cc4)cc3c2)c1 (racemic) [Compound 1, 1-{3-[2-(4-Chlorophenyl)pyrazolo[1,5-a]pyridin-5-yl]phenyl}prop-2-yn-1-ol]
3 | 192 to 194 | C#CC(O)c1cccc(-c2ccn3nc(-c4ccc(F)cc4)cc3c2)c1 (racemic) [Compound 2, 1-{3-[2-(4-Fluorophenyl)pyrazolo[1,5-a]pyridin-5-yl]phenyl}prop-2-yn-1-ol]
4 | 164 to 166 | CC#CC(O)c1cccc(-c2ccn3nc(-c4ccc(F)cc4)cc3c2)c1 (racemic) [Compound 3, 1-{3-[2-(4-Fluorophenyl)pyrazolo[1,5-a]pyridin-5-yl]phenyl}but-2-yn-1-ol]
5 | 215 to 217 | C#CC(C)(O)c1cccc(-c2ccn3nc(-c4ccc(F)cc4)cc3c2)c1 (racemic) [Compound 4, 2-{3-[2-(4-Fluorophenyl)pyrazolo[1,5-a]pyridin-5-yl]phenyl}but-3-yn-2-ol]
6 | 104 to 106 | C#CC(O)c1ccccc1-c1ccn2nc(-c3ccc(F)cc3)cc2c1 (racemic) [Compound 5, 1-{2-[2-(4-Fluorophenyl)pyrazolo[1,5-a]pyridin-5-yl]phenyl}prop-2-yn-1-ol]
7 | 151 to 153 | C#CC(O)c1c(F)ccc(-c2ccn3nc(-c4ccc(F)cc4)cc3c2)c1F (racemic) [Compound 6, 1-{2,6-Difluoro-3-[2-(4-fluorophenyl)pyrazolo[1,5-a]pyridin-5-yl]-phenyl}prop-2-yn-1-ol]
8 | 157 to 159 | C#CC(O)c1cccc(-c2ccn3nc(-c4ccccc4F)cc3c2)c1 (racemic) [Compound 7, 1-{3-[2-(2-Fluorophenyl)pyrazolo[1,5-a]pyridin-5-yl]phenyl}prop-2-yn-1-ol]
9 | 183 to 185 | C#CC(O)c1cccc(-c2ccn3nc(-c4ccc(C)cc4)cc3c2)c1 (racemic) [Compound 8, 1-[3-(2-{p-Tolyl}pyrazolo[1,5-a]pyridin-5-yl)phenyl]prop-2-yn-1-ol]
10 | 139 to 141 | C#CC(O)c1cccc(-c2ccn3nc(-c4ccc(F)cc4)cc3c2)c1 (single isomer, unassigned; (+)) [Compound 10, (+)-1-{3-[2-(4-Fluorophenyl)pyrazolo[1,5-a]pyridin-5-yl]phenyl}prop-2-yn-1-ol]
11 | 126 to 128 | C#CC(C)(O)c1cccc(-c2ccn3nc(-c4ccc(F)cc4)cc3c2)c1 (single isomer, unassigned; (+)) [Compound 12, (+)-2-{3-[2-(4-Fluorophenyl)pyrazolo[1,5-a]pyridin-5-yl]phenyl}but-3-yn-2-ol]
12 | 147 to 149 | C#CC(O)c1cccc(-c2ccn3nc(-c4ccc(F)cc4)cc3c2)c1 (single isomer, unassigned; (-)) [Compound 9, (−)-1-{3-[2-(4-Fluorophenyl)pyrazolo[1,5-a]pyridin-5-yl]phenyl}prop-2-yn-1-ol]
13 | 122 to 124 | C#CC(C)(O)c1cccc(-c2ccn3nc(-c4ccc(F)cc4)cc3c2)c1 (single isomer, unassigned; (-)) [Compound 11, (−)-2-{3-[2-(4-Fluorophenyl)pyrazolo[1,5-a]pyridin-5-yl]phenyl}but-3-yn-2-ol]
